Test results taken from patent US20040235027A1, “Preparation and application of ligand-biopolymer conjugates” (Regent of the University of California, priority 2003, published 2004).

Experiments:
Assay type in all cases: binding
rabbit sera IgG [1] = experiment: ELISA of rabbit sera IgG reactivity to small molecule-peptide-agarose conjugates; settings: sera (n=5) one month post-immunization, serially diluted; dilution of 1:6750 or lower; on PDC-E2 peptide
Experimental: Comparison between ELISA and microarray assay. Rabbit sera (n=5) at one month post-immunization were serially diluted (1:250, 1:750, 1:2250, 1:6750 and 1:20250) and IgG reactivity to small molecule-peptide-agarose conjugates were determined by both the ELISA and microarray assay. Briefly, ELISA plates were coated with 50 μl of each individual xenobiotic compounds-peptide-agarose mixture in DMSO (1 mg/ml) for 2 hours at room temperature, then antigens were removed and plates dried overnight at room temperature. Dried ELISA plates were thereafter blocked with 3% non-fat dry milk in PBS and incubated with serially diluted rabbit sera for 1 hour at room temperature. After washing, the plates were incubated with HRP conjugated mouse anti-rabbit IgG (Zymed, San Francisco, Calif.) antibodies for 30 min at room temperature, washed and incubated with 2,2′-azino-bis(3-ethylbenzthiazoline-6-sulfonic acid) containing hydrogen peroxide (Kirkegaard & Perry Laboratories, Inc, MD). Likewise, IgG reactivity of rabbit sera at 0, 1, 6, 12 and 22 months post-immunization against recombinant human PDC-E2 protein (see Leung, P. S. et al. J. Immunol. 2003, 170:5326) and KLH (Sigma, St. Louis, Mo.) was determined at 1:100 sera dilution by standard ELISA.
Validation of peptide microarray assay. To validate the microarray assay, data obtained using the microarray and ELISA were compared. Rabbit sera (n=5) at one month post-immunization with human recombinant PDC-E2 were serially diluted and their IgG reactivity against 6-bromohexanoate, compound 9, lipoic acid on PDC-E2 peptide and non-lipoylated native PDC-E2 peptide were determined by both ELISA and microarray assay (FIG. 13). […] To validate the sensitivity of the microarray, four different concentrations (0.1%, 0.03%, 0.01% and 0.004%) of HA peptide ([…]) were spotted. Individual arrays were incubated with murine monoclonal anti-HA antibody or normal murine IgG followed by secondary antibody (goat anti-murine IgG) conjugated to Cy3.

rabbit sera IgG [2] = experiment: microarray assay of rabbit sera IgG reactivity to small molecule-peptide-agarose conjugates; settings: sera (n=5) one month post-immunization, serially diluted; dilution of 1:6750 or lower; on PDC-E2 peptide
Experimental: (§1) Preparation of microarray and analysis of immunoreactivity. Xenobiotic compounds-peptide-agarose mixture were diluted (0.1%) in 0.1 M Na2CO3/NaHCO3 buffer (p)H 9.0), and transferred to 96 well plates. Thereafter mixtures were spotted onto glass slides (Mercedes Medical, Florida) using the Affymetrix 417 Microarrayer (Affymetrix, Santa Clara, Calif.). Each sample was spotted in triplicate, with a spot size of 150 μm in diameter. Spotted microarrays were stored at 4° C. until use. Before use, microarrays were blocked with 3% non-fat dry milk in PBS buffer for 1 hour at room temperature, and individual slides were thereafter incubated with diluted antibody samples (rabbit sera 1:250, murine anti-PDC monoclonal antibody 1:1) in 1 ml of blocking buffer (3% non-fat dry milk in PBS with 0.05% tween-20) (PBST) for 1 hour at room temperature. After thorough washes with PBST, 1 ml of the Cy3 conjugated secondary antibody (1 μg/ml) (Zymed Laboratories Inc. San Francisco, Calif.) in blocking buffer was added to each slide and incubated at room temperature for 30 min. […] Mixtures of xenobiotics and agarose were also spotted and analyzed as controls. […]
Comparison between ELISA and microarray assay. Rabbit sera (n=5) at one month post-immunization were serially diluted (1:250, 1:750, 1:2250, 1:6750 and 1:20250) and IgG reactivity to small molecule-peptide-agarose conjugates were determined by both the ELISA and microarray assay. […] Likewise, IgG reactivity of rabbit sera at 0, 1, 6, 12 and 22 months post-immunization against recombinant human PDC-E2 protein (see Leung, P. S. et al. J. Immunol. 2003, 170:5326) and KLH (Sigma, St. Louis, Mo.) was determined at 1:100 sera dilution by standard ELISA.
Validation of peptide microarray assay. […] Rabbit sera (n=5) at one month post-immunization with human recombinant PDC-E2 were serially diluted and their IgG reactivity against 6-bromohexanoate, compound 9, lipoic acid on PDC-E2 peptide and non-lipoylated native PDC-E2 peptide were determined by both ELISA and microarray assay (FIG. 13). […]

[3] = test system: murine anti-PDC monoclonal antibody 2H4; experiment: xenobiotic-peptide-agarose microarray, reactivity of mAb 2H4; settings: xenobiotic or lipoic acid coupled to PDC peptide-agarose
From the text: Synthesis of mimeotopes and coupling with peptide-agarose conjugate. Carboxylic acid derivatives of twenty-three xenobiotic compounds were used in this study. Compounds 1-19 were synthesized as described in Long, S. A. et al. J. Immunol. 2001, 167:2956 which is herein incorporated by reference in its entirety. The carboxylic acid derivatives are then reacted with NHS to form the corresponding NHS esters. These 23 compounds, in addition to lipoic acid with NHS ester, were coupled to the lysine residue on the PDC-E2 peptide-agarose conjugate as follows. Briefly, 0.4 mg of the PDC-E2 peptide-agarose conjugate and 10 μmol of each of the NHS esters were mixed in 40 μl of DMSO. Mixtures were incubated at room temperature for 2 hours. To ensure complete coupling, a quantitative ninhydrin test at 570 nm was performed.
as §1, with “min. Subsequently slides were washed in PBST for 10 min and in water for 15 sec.” for “min.”

[4] = test system: murine monoclonal anti-HA antibody; experiment: HA peptide microarray sensitivity validation with anti-HA monoclonal antibody

O=C(O)CCCC[C@@H]1CCSS1 (racemic) [lipoic acid]
rabbit sera IgG reactivity, ELISA (rabbit sera IgG [1]): dilution dependent response | rabbit sera IgG reactivity, microarray assay (rabbit sera IgG [2]): dilution dependent response | reactivity of mAb 2H4 [3]: bound strongly

O=C(O)CCCCCBr [6-bromohexanoate]
rabbit sera IgG reactivity, ELISA (rabbit sera IgG [1]): dilution dependent response | rabbit sera IgG reactivity, microarray assay (rabbit sera IgG [2]): dilution dependent response | reactivity of mAb 2H4 [3]: bound strongly

DKATIGFEVQEE [non-lipoylated native PDC peptide, 12 mer PDC-E2 peptide on agarose, without xenobiotic or lipoic acid]
rabbit sera IgG reactivity, ELISA (rabbit sera IgG [1]): dilution dependent response | rabbit sera IgG reactivity, microarray assay (rabbit sera IgG [2]): dilution dependent response | reactivity of mAb 2H4 [3]: Weak reactivity

YPYDVPDYA [HA peptide]
anti-HA antibody concentration giving dose dependent response ([4]; HA peptide spotted at 0.1%, 0.03%, 0.01%): ≥ 5 ng/mL | anti-HA antibody concentration required ([4]; lowest concentration of HA (0.004%)): > 50 ng/mL
